According to patent US9358220B2, “Method of treating acne” (THESAN PHARMACEUTICALS, INC., priority 2008, dated 2016):
Where two headings read alike, the source gives them in different places.

How the values were obtained:
AhR [1] = target: T1, AhR (Homo sapiens, UniProt P35869); test: AhR activation test, luciferase reporter plox-XRE TATA-Luc in HEP G2 cells; type: cell-based; parameters: endogenous in cells; host or cells: Hep G2 cells transduced with the reporter lentivector plox-XRE TATA-Luc; conditions: for AhR percentage activation compared to 0.01 μM TCDD: HEP G2 cells, most active concentration in the range tested
T1 sequence (P35869 11-848): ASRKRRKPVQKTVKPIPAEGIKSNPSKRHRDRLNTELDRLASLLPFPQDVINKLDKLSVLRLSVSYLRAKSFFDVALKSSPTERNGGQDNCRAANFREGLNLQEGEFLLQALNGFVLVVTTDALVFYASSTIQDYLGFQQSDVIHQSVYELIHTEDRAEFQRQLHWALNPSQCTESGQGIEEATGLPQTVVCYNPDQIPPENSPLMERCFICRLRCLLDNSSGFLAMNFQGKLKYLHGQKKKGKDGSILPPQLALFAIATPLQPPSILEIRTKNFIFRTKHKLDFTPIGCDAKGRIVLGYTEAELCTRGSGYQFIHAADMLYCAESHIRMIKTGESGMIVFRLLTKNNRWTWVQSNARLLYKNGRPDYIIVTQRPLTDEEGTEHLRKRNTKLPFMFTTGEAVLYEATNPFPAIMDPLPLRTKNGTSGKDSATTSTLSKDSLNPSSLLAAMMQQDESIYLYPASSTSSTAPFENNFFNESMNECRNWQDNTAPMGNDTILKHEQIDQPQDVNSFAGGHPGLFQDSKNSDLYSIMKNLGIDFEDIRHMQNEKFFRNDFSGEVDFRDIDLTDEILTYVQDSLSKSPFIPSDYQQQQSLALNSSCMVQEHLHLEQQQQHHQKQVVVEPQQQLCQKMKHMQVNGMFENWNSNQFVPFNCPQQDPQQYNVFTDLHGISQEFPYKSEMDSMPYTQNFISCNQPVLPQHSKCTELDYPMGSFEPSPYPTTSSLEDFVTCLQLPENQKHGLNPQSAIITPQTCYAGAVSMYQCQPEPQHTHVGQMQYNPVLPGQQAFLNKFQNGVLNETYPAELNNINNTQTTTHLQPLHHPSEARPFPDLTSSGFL
Method: (§1) The Hep G2 cells are cultured in DMEM (Gibco)+10% fetal bovine serum+penicillin+streptomycin, the NHKs in keratinocyte SFM medium (Gibco)+penicillin+streptomycin. At DO, the Hep G2 cells are seeded into 12-well plates in a proportion of approximately 30 000 cells/cm^2. The NHKs are seeded into 6-well plates in a proportion of approximately 15 000 cells/cm^2. After 24 h, the medium is replaced with fresh medium and the cells are transduced with the lentivector plox-XRE TATA-Luc. After 48 h, the cells are subcultured and maintained in culture, and tested for their reactivity to TCDD.
The tests are carried out using the luciferase reporter assay system kit from Promega. At DO, the cells are seeded at a density of approximately 60% confluence, and then treated, at Dl, with the test substance diluted to various concentrations in the appropriate culture medium. At D2, the cells are lysed in CLB buffer, and the lysate is clarified by centrifugation for 5 min at 10 000 g. The luciferase activity is measured in 20 microliters of lysate as recommended by the supplier, using the luminoskan luminometer (Thermo).

AhR [2] = target: T1, AhR; test: AhR activation test, luciferase reporter plox-XRE TATA-Luc in normal human keratinocytes; type: cell-based; parameters: endogenous in cells; host or cells: normal human keratinocytes (NHKs) transduced with the reporter lentivector plox-XRE TATA-Luc; conditions: NHK-plox-XRE TATA-Luc cells, 10 nM, 24 h
Method: FIGS. 14, 15 and 16 show AhR activation in HEP G2 cells and normal human keratinocytes (NHKs) stably transfected with the lentivector plox-XRE TATA-Luc.
as §1
The tests are carried out using the luciferase reporter assay system kit from Promega. […] At D2, the cells are lysed in CLB buffer, and the lysate is clarified by centrifugation for 5 min at 10 000 g. The luciferase activity is measured in 20 microliters of lysate as recommended by the supplier, using the luminoskan luminometer (Thermo).
Similar results are noted.

CYPlAl [3] = test: CYP1A1 activity test (P450-GLO assay) in NHK cells; type: cell-based, human; conditions: 10 nM, 24 h
human skin [4] = test: Estradiol (E2) concentration in human skin exposed to TCDD by ELISA; type: in vivo; conditions: human skin containing 1800 ppt of TCDD versus controls
human skin [5] = test: Messenger RNA expression (RT PCR, transcriptome) in human skin exposed to TCDD; type: in vivo
Source text: This observation identifies a new target for medicaments aimed at modulating sebaceous function, a concept exemplified here by AhR activation.
The expression of the messenger RNAs of vascular endothelial growth factors (VEGFs) and of their receptors is increased in skin exposed to TCDD.
The expression of the messenger RNAs of the various estrogen receptors ESRR and ER, of the estrogen responsive finger protein (EFP) ligase and of the estrogen-producing aromatase enzyme is increased in skin exposed to TCDD.

AhR [6] = target: T1, AhR; test: Test for potentiation by bacterial flora: AhR activation in HEP G2 cells with skin bacteria extracts and tryptophan; type: cell-based; parameters: endogenous in cells; host or cells: Hep G2 cells transduced with the reporter lentivector plox-XRE TATA-Luc
Method: The activation value 25.00 on the Y-axis corresponds to ⅙ of the AhR stimulation by 10 nM TCDD in this same system (157.00).

[7] = system: staphylococcus sp, P. acnes; test: Bacterial colonization of human skin exposed to TCDD (CFU per cm^2); type: in vivo
sebaceous glands [8] = test: Sebaceous glands in biopsies of human skin exposed to TCDD (histology); type: in vivo; conditions: human skin containing 930 to 2900 ppt of TCDD; 62 biopsies, 620 sections
Method: The sebaceous glands, which are present in large numbers in normal human skin, disappear during exposure to toxic doses of TCDD. […] Thus, on the face of an adult, the number is between 400 and 900/cm^2.
For each site, 3 to 10 skin biopsies were analyzed after fixing with formol and staining with hematin-eosin. At least 10 sections per block were analyzed.

human keratinocytes = test: Wound healing in vitro on a culture of human keratinocytes (migration index); type: cell-based
Method: The wound is induced by means of an incision with a yellow micropipette tip (10-200 μl). Migration index value obtained with the ligand/that of the control without ligand. […] This indicates an activity of the AhR activation pathway on the migration of keratinocytes which is found in vivo in humans (FIGS. 5, 6, 10).

CYPlAl [9] = test: CYP1A1 activity test (P450-GLO assay) in Hep G2 cells
Method: The tests are carried out using the P450-GLO assay kit from Promega. At D0, the cells are seeded at a density of approximately 60% confluence, and then treated at Dl with the test substance diluted to various concentrations in the appropriate culture medium. At D2, the CYPlAl activity is measured as recommended by the supplier, using the nonlytic protocol on a cell monolayer.

dermabrasions = test: Healing of superficial epidermal-dermal wounds (dermabrasions) in human skin containing TCDD; type: in vivo
Source text: Thus, the time to complete healing is reduced from 9.3 to 5 days.

sebaceous glands [10] = test: Sebaceous glands in the ear skin of C57BL/6 mice after topical application; type: in vivo
Source text: The effect on the sebaceous glands can be reproduced in animals by topical application of TCDD. A 95% reduction in the number of sebaceous glands can be observed in C57BL/6 mice after 45 days of application of 2 mcg/ml TCDD (FIG. 2).
To reproduce the useful effect of TCDD, in a therapeutic reduction approach the reduction in the surface area of the sebaceous glands in the ears of C57BL/6 mice treated once a day for 45 d with various ligands according to the invention can be studied. The surface area of the sebaceous glands is measured on three serial sections per animal. A reduction of greater than 40% is sought, and obtained here with a concentration, a treatment time and an application frequency considered to be minimal. Isotretinoin is shown by way of example of a product used for the topical and systemic treatment of acne.
The topical application of an AhR ligand such as 6-formylindolo[3,2-b]carbazole (FICZ), at a concentration of 100 mcg/ml, makes it possible to obtain a significant decrease in the sebaceous glands, of the order of 40%. Other ligands according to the invention (see FIGS. 14, 15 and 17) also lead to a decrease in the surface area of the sebaceous glands.

[11] = human organism; cited from earlier work
chronic wounds = test: Chronic human leg wounds with dermatoporosis treated with tryptophan gel; type: in vivo
seborrhea = test: Sebumetric measurement of casual sebum levels on the face of hyperseborrheic men; type: in vivo, human; conditions: gel containing 1% tryptophan on the face of two hyperseborrheic men for 3 weeks
Source text: The effect shown in FIG. 16, where it is seen that Propionibacterium acnes (PA) generates an AhR activation, which is highly accentuated by the addition of tryptophan, can be taken advantage of in the context of this invention. This is because PA is one of the key players in sebaceous gland diseases, and it is present in large amounts in facial skin. It could therefore contribute to producing therapeutic amounts of AhR ligands in the presence of tryptophan, or also other aromatic amino acids such as tyrosine and phenylalanine. In order to explore the relevance of this approach, the applicant carried out a test by applying a gel containing 1% tryptophan to the face of two hyperseborrheic men for 3 weeks, and observed a decrease in the seborrhea which could be evaluated at 40% of the starting value using sebumetric measurement of the casual sebum levels.

[12] = human skin containing 1800 ppt of TCDD versus controls

O=c1cc(O)cc(/C=C/c2ccc(O)c(O)c2)o1 [hispidin, Hispidin]
AhR percentage activation compared to 0.01 μM TCDD (AhR [1]): greatest activities

Clc1cc2c(cc1Cl)Oc1cc(Cl)c(Cl)cc1O2 [TCDD, 2,3,7,8-tetrachlorodibenzo-p-dioxin]
induction of the luciferase activity (AhR [2]): 10 fold | induction of the CYPlAl activity (CYPlAl [3]): 20 fold | concentration of estradiol (E2) in skin (human skin [4]): increase in the concentration of estradiol | expression of messenger RNAs of estrogen receptors ESRR and ER, EFP ligase and aromatase (human skin [5]; [12]): increased | expression of messenger RNAs of vascular endothelial growth factors (VEGFs) and their receptors (human skin [5]; [12]): increased | hyaluronate in the dermis (human skin [5]; human skin exposed to TCDD): very substantial accumulation of hyaluronate in the dermis | messenger RNAs of sebaceous lipogenesis enzymes (human skin [5]; human skin exposed to TCDD, whole transcriptome): considerable reduction | AhR stimulation (activation value on the Y-axis) (AhR [6]; 10 nM): 157.00 | P. acnes colonization of skin ([7]; human skin exposed to TCDD): same effect is observed | colonization of skin by staphylococcus sp (CFU per cm^2) ([7]; human with more than 900 ppt of TCDD in the skin, 4 samples 1 month apart): very greatly decreased | sebaceous glands observed in skin biopsies (sebaceous glands [8]): no sebaceous gland could be observed | effect on healing at the highest concentrations (human keratinocytes): a decrease in the effect, or even an inhibition of healing | stimulation of healing (migration index) (human keratinocytes; nM concentrations): strong stimulation of healing | induction of the CYPlAl activity (CYPlAl [9]; Hep G2 cells, 10 nM, 24 h): 250 fold | time in which epidermal-dermal wounds are covered (dermabrasions; human exposed to TCDD, average healing time ordinarily 10 days): 3 days | time to complete healing of dermabrasions (dermabrasions; human skin with 930 to 2900 ppt TCDD, controls 9.3 days): 5 days | reduction in the number of sebaceous glands (sebaceous glands [10]; C57BL/6 mice, topical 2 mcg/ml, 45 days): 95% | half-life in human tissues [11]: 4-12 years | induction of the luciferase activity (AhR [1]; Hep G2-plox-XRE TATA-Luc cells, 10 nM, 24 h): 100 fold

CCOC(=O)c1cc2c(cn1)[nH]c1ccccc12 [B-CCE, Ethyl β-carboline-3-carboxylate]
induction of CYPlAl activity by ligands according to the invention (CYPlAl [9]; FIG. 17, cell type not stated for the ligands): induction of this AhR-dependent biological activity | AhR percentage activation compared to 0.01 μM TCDD (AhR [1]): greatest activities

O=c1c2ccccc2nc2n1CCc1c-2[nH]c2ccccc12 [rutaecarpine, Rutaecarpine]
induction of CYPlAl activity by ligands according to the invention (CYPlAl [9]): induction of this AhR-dependent biological activity

N[C@@H](Cc1c[nH]c2ccccc12)C(=O)O [tryptophan]
AhR activation with bacterial extract on addition of tryptophan (AhR [6]; in particular with P. acnes extract): an increase in the activation is observed | stimulation of healing (migration index) (human keratinocytes; μM concentrations): strong stimulation of healing | dermatoporotic skin around the wound (chronic wounds): thickening of the dermatoporotic skin around the wound | healing of chronic wounds (chronic wounds; series of 10 cases of chronic wounds on legs): Contraction of chronic wounds and the development of epithelial healing | AhR percentage activation compared to 0.01 μM TCDD (AhR [1]): greatest activities | decrease in the seborrhea (casual sebum levels), of the starting value (seborrhea): 40%

O=Cc1c2c(cc3c1=Nc1ccccc1-3)=Nc1ccccc1-2 [FICZ, 6-Formylindolo[3,2-b]carbazole]
effect on healing at the highest concentrations (human keratinocytes): a decrease in the effect, or even an inhibition of healing | stimulation of healing (migration index) (human keratinocytes; μM concentrations): strong stimulation of healing | decrease in the sebaceous glands (sebaceous glands [10]; C57BL/6 mice ears, topical 100 mcg/ml, once a day for 45 d): ~40% | AhR percentage activation compared to 0.01 μM TCDD (AhR [1]): greatest activities

COc1ccccc1OCCNCC(O)COc1cccc2[nH]c3ccccc3c12 (stereo not shown) [carvedilol, Carvedilol]
induction of CYPlAl activity by ligands according to the invention (CYPlAl [9]): induction of this AhR-dependent biological activity
